Like-named read-outs stand apart in the source and are kept apart here.

We go through three compounds from article PMC3091868, “A Novel Structural Framework for α1A/D-Adrenoceptor Selective Antagonists Identified Using Subtype Selective Pharmacophores” (PLoS ONE, 2011).

One assay deals with T1, α1A-AR (Rattus norvegicus, UniProt P43140).
T1 construct: expressed in transfected cells; host or cells: COS-1
T1 sequence (P43140 1-466): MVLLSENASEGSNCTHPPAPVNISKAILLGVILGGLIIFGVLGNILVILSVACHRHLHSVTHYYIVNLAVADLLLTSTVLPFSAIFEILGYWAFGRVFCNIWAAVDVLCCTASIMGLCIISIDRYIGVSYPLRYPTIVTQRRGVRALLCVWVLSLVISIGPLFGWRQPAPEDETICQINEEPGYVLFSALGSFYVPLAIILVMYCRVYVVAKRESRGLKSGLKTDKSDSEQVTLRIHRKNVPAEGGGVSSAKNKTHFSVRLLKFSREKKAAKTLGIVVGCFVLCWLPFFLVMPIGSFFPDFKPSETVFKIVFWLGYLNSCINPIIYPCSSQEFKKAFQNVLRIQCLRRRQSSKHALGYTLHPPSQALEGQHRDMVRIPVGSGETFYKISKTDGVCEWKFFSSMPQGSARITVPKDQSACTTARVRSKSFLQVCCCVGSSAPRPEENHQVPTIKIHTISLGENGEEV
The assay can be described thus: Phosphatidylinositol hydrolysis (IP accumulation) assay in COS-1 cells expressing α1A-AR. Type of assay: cell-based, rodent. The note with it: for IC50: 20 min compound, then 10 µM (-)-norepinephrine 30 min, COS-1 cells, read-out: pIC50, inhibition of norepinephrine induced IP accumulation at α1A-AR (converted). How it is done: (§1) COS-1 cells (American Type Culture Collection, Manassas, VA) were cultured in Dulbecco's modified Eagle's medium (DMEM) supplemented with 10% (v/v) heat inactivated fetal bovine serum (FBS), 100 µg ml^−1 penicillin and 100 µg ml^−1 streptomycin. Cells were maintained and passaged upon reaching confluence by standard cell culture techniques. pMT4 plasmids containing rodent α1-AR (a kind gift from Prof R Graham, Victor Chang Cardiac Research Institute, Australia) were used to transfect cells. Transient expression in COS-1 cells was accomplished using two techniques; the diethylaminoethane-dextran (DEAE-dextran) and Lipofectamine 2000 (Invitrogen, Carlsbad, CA, USA) methods. Briefly, the DEAE-dextran method involved washing of cells with phosphate buffered saline (PBS), followed by the addition of the DNA mixture (12–25 µg/4×10^6 cells) in DEAE-dextran (10 mg ml^−1) to cells at 60–80% confluency. Following a 3 h incubation, a PBS wash with 10% DMSO was used to shock the cells. Cells were harvested 72 h post transfection. For the Lipofectamine 2000 method, cells were incubated for 12 h with Opti-MEM (GIBCO BRL, Gaithersburg, MD, USA) containing Lipofectamine 2000.
Accumulation of [^3H] inositol phosphates (IPs) was determined as described previously. Briefly, COS-1 cells were transiently transfected with α1A, α1B and α1D - AR pMT4 plasmids using the Lipofectamine method. 24 h after transfection, cells were seeded into 96 well plates and labelled overnight with 20 µCi ml^−1 [^3H]myo-inositol in inositol free DMEM supplemented with 5% charcoal stripped FBS. Cells were washed twice with inositol free DMEM, and incubated in inositol free DMEM for 2 h at 37°C. Cells were treated for 20 minutes with LiCl (20 mM) and propanolol (20 µM) in the presence or absence of tested compounds. Agonists were then added for 30 min, and the reaction was terminated by addition of 0.4 M formic acid. Cells were lysed by freeze thawing twice and were applied to AG 1-X8 columns. Total IPs were eluted with 1 M ammonium formate in 0.1 M formic acid. 200 µL of eluted sample was diluted with 1 mL reverse osmosis water and 5 mL Ultimaflow scintillation fluid (Perkin Elmer), and were counted in a liquid scintillation counter.
Compounds were administered alone (100 µM) or prior to the addition of 10 µM […], to screen for agonist or antagonist activity respectively.
Figure 2 Inhibition of norepinephrine induced inositol phosphate (IP) accumulation at α1A- AR. α1A-AR transfected cells labelled overnight with [^3H]- myo-inositol were treated with indicated concentrations (300 µM – 0.1 µM) of test compounds, 1 (▪), 2 (▵), and 11 (○), for 20 min. This was followed by a 30 min. stimulation with 10 µM (-)- norepinephrine, following which total IP accumulation was determined. Data was normalized against basal COS-1 cell IP production and expressed as a percentage of the (-)-norepinephrine-stimulated maximal IP response of that receptor subtype. The data represented the mean ± SE of a single experiment (n = 4–5), performed in triplicate.
Figure 3 Inositol phosphate (IP) accumulation in the presence of norepinephrine and compound 8 at the α1A- adrenoceptor (AR). α1A-AR transfected cells were labelled with [^3H]- myo-inositol. Following a 20 min. treatment with lithium chloride (20 mM) and propanolol (20 µM) the cells were stimulated with the indicated concentrations (300 µM − 0.1 µM) of (-) norepinephrine (•) or compound 8 (▪) for 30 min. Total inositol phosphate (IP) accumulation was determined as described under “Materials and Methods”. Data was normalized against basal COS-1 cell IP production and expressed as a percentage of the (-)-norepinephrine-stimulated maximal IP response. The data represents the mean ± SE of three separate experiments (n = 3), performed in duplicate or triplicate.

A further assay concerns the target T2, α1B-AR (Mesocricetus auratus, UniProt P18841).
T2 construct: expressed in transfected cells; host or cells: COS-1
T2 sequence (P18841 1-515): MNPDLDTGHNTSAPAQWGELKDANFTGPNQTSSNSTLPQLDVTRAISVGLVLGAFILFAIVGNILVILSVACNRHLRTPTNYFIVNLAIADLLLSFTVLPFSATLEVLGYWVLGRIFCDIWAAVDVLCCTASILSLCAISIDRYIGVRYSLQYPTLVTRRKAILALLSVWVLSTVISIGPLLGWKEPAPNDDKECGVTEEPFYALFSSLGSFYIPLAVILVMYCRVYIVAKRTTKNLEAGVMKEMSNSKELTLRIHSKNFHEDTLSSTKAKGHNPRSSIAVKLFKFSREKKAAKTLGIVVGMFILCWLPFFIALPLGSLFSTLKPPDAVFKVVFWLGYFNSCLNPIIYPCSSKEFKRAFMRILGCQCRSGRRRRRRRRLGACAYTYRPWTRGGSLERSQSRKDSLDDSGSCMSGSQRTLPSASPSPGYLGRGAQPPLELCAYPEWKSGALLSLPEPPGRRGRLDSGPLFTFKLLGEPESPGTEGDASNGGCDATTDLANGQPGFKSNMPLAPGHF
The assay can be described thus: [3H]Prazosin competition/saturation binding on COS-1 membranes expressing α1B-AR. Also on record: species or system rodent. How it is done:
as §1
Membranes were prepared as described previously. Briefly, COS-1 cells were transiently transfected using the DEAE-dextran method. […] Protein concentration was determined using Bradford reagent (Sigma, St Louis, MO, USA).
For all binding experiments, the reaction mixture was incubated for 1 h at room temperature, stopped by the addition of 4°C PBS and filtered with a Brandel cell harvester (Gaithersburg, MD, USA) on GF/C filters. Nonspecific binding was defined as binding in the presence of 100 µM phentolamine hydrochloride.
Nonlinear regression analysis of saturation and competition binding assay data was performed using the […] curve fitting program GraphPad Prism (San Diego, CA, USA). […] The competitive binding data for each ligand was tested for both one and two -site binding.

Setting [1] is: [3H]Prazosin 200 pM, COS-1 membranes, antilog of mean pKi, Cheng-Prusoff, read-out: Ki α1B-AR.
Setting [2] is: [3H]Prazosin 200 pM, COS-1 membranes, pKi = -Log Ki, read-out: pKi α1B-AR (converted).

As for `Cc1ccc(C)c(N2CCN(CC(O)COC(C)(C)C)CC2)c1` (centres unmarked) [Compound 1], at α1A-AR, the IC50 was 25.1 µM. Besides, the Ki at α1B-AR was < 2 µM; on α1B-AR (setting [1]), 1.42 µM.

`CCCCCCCCN(CCCCCCCC)CC(O)c1ccccc1Cl` (centres unmarked) [Compound 8]: the “IP production, compound alone, compared to control, α1A-AR” value at α1A-AR (100 µM compound alone, agonist screen, n = 3) is recorded as “distinct trend of increased IP production”. For the same compound, the “Maximal IP production, % of the (-) norepinephrine control” value on α1A-AR (COS-1 cells expressing α1A-AR) is reported as “approximately 30%”. Besides, the EC50 at α1A-AR (COS-1 cells expressing α1A-AR, 30 min, n = 3, read-out: pEC50, increase in intracellular IP at α1A-AR (converted)) is 5.5 µM. The Ki at α1B-AR (setting [1]) and on α1B-AR (setting [2]) was > 100 µM in each case.

As for `COc1cc2c(cc1OC)C1CC(C)=C(c3ccccc3)CN1CC2` (centres unmarked) [Compound 11], the IC50 on α1A-AR is 13.2 µM. Also, the Ki at α1B-AR (setting [1]) is 11.8 µM; on α1B-AR (setting [2]) it was 11 µM.
